Key:
[1] = tested on: human donor lungs; experiment: Ex vivo functional assessment (oxygenation, compliance) of EVLP human donor lungs; conditions: aerosolized drug, EVLP #3 human lung
Experimental: (§1) Donor lungs were offered to our lung-transplantation program through our local organ procurement organization (Gift of Life) and were de-identified. Donor lungs that met the entry criteria (i.e., non-transplantable) were retrieved, delivered to our center by means of standard cold-storage transport in a low-potassium dextran solution (Perfadex, Vitrolife), and perfused in the EVLP system for 3-6 hours. Lungs were considered suitable for transplantation if during EVLP the PO2:FIO2 ratio—that is, the partial pressure of oxygen ex vivo (PO2) to the fraction of inspired oxygen (FIO2)—was 350 mm Hg or more and if deterioration from baseline levels of all three physiological measurements (pulmonary vascular resistance, dynamic compliance, and peak inspiratory pressure) was less than 15% while the lungs were ventilated with the use of a tidal volume of 7 ml per kilogram of donor body weight and a rate of 7 breaths per minute during the perfusion period (FIG. 1)
(§2) Technique: The acellular EVLP technique has been described in detail elsewhere (Cypel et al., N Engl J Med. 2011 Apr. 14; 364(15):1431-40). After 3-6 hours of EVLP, the lungs were cooled to 4° C. over a period of 10 minutes. Thereafter, perfusion and ventilation were stopped (with FIO2 changed to 0.21 for the purpose of lung storage), and the trachea was clamped at full inspiration to maintain the lungs in a state of inflation. The lungs were then stored at 4° C. in Perfadex until transplantation.
Ex Vivo Functional Assessment: For the functional assessment ex vivo, tidal volume was set at 10 ml per kilogram of donor body weight and 10 breaths per minute, with FIO2 at 1.0. Lung function was evaluated hourly during EVLP according to the following calculations: PO2=[left atrial PO2−pulmonary-artery PO2 (in mm Hg)], and pulmonary vascular resistance=[(pulmonary-artery pressure-left atrial pressure)×80]÷pulmonary-artery flow (in dynes·seconds·cm^−5), dynamic compliance (in milliliters per centimeter of water), and peak inspiratory pressure (in centimeters of water). […]

[2] = tested on: hemeoxygenase-1 (HO-1); experiment: qRT-PCR gene expression in EVLP lung tissues: HO-1; parameters: species or system human; conditions: EVLP #4, 200 mg/lung instilled in right lung, vehicle in contralateral lung
Experimental: (§3) GENE EXPRESSION LEVEL OF THE NRF2-REGULATED STRESS RESPONSE ENZYME HO-1: In a separate study (EVLP #4), SDG (LGM2605) was instilled only in one lung (right) while vehicle control was instilled in the contralateral lung (FIG. 4). The concentration of the drug (200 mg/lung) was kept the same as above. […] A drop in the left lung may reflect action of SDG (LGM2605) on that lung through the perfusate (we have shown above that some of the drug appears into the systemic circulation).

[3] = tested on: NQO-1; experiment: qRT-PCR gene expression in EVLP lung tissues: NQO1; parameters: species or system human; conditions: EVLP #4, treated lung vs vehicle-treated lung, 120' sampling time
Experimental: as §3
(§4) GENE EXPRESSION LEVELS OF THE NRF2-REGULATED ANTIOXIDANT ENZYMES NQO1 AND GSTM1 INCREASE IN HUMAN LUNG (EVLP) TISSUES TREATED WITH LGM2605 (SDG): Nrf2 is a transcription factor that regulates the expression of antioxidant and cytoprotective genes such as NQO-1 and GSTMu1. […] Our findings confirm that SDG boosts endogenous antioxidant defenses in human lung tissues during ischemia (FIG. 6).

[4] = tested on: GSTMu1; experiment: qRT-PCR gene expression in EVLP lung tissues: GSTM1; parameters: species or system human; conditions: EVLP #4, treated lung vs vehicle-treated lung, 120' sampling time
Experimental: as §3, §4

[5] = tested on: IL-1β; experiment: qRT-PCR gene expression in EVLP lung tissues: IL-1β; parameters: species or system human; conditions: EVLP #4, treated right lung vs vehicle-treated lung
Experimental: as §3
(§5) Our findings confirm that SDG decreases inflammatory parameters in human lung tissues during ischemia.

[6] = tested on: COX-2; experiment: qRT-PCR gene expression in EVLP lung tissues: COX-2; conditions: aerosolized instillation, human EVLP lung tissues
Experimental: as §3
GENE EXPRESSION LEVELS OF THE COX-2 (AN ENZYME PROMOTING INFLAMMATION AND PAIN) DECREASE IN HUMAN LUNG (EVLP) TISSUES TREATED WITH LGM2605 (SDG): Cyclo-oxygenease-2 is an enzyme responsible for the formation of prostanoids such as thromboxane and prostanglandins. Pharmacological inhibition of COX can provide relief from symptoms of inflammation and pain. […] A drop in the vehicle-treated lung may reflect action of the drug via the perfusate (systemic circulation—FIG. 8).

[7] = tested on: IL-6; experiment: qRT-PCR gene expression in EVLP lung tissues: IL-6; parameters: species or system human; conditions: EVLP #4, treated right lung vs vehicle-treated lung
Experimental: as §3, §5

[8] = LC/MS/MS drug levels in lung tissue, BALF and perfusate during ex vivo lung perfusion (EVLP); parameters: species or system human
Experimental: as §1, §2
LGM2605 (SDG) ACCUMULATES IN HUMAN LUNG TISSUES: Using LC/MS/MS analytical methodologies, we determined synthetic SDG (LGM2605) levels in left and right lung tissues, in bronchoalveolar lavage fluid (BALF) and perfusate fluid over multiple time points spanning from 30 minutes post aerosolized instillation of 200 mg drug/lung, to 360 minutes (FIG. 2). Of importance is that aerosolized SDG (LGM2605) (i.e, instilled in airways), leaks into the systemic circulation and can be detected in the perfusate for at least 240 minutes. Importantly, levels in lung tissue biopsies show a peak of drug by 120 minutes, persisting for up to 240 minutes. Additionally, levels in BALF persist beyond 360 min.

[9] = aerosolized instillation of 200 mg drug/lung, human EVLP lungs, lung tissue biopsies

HO-1 gene expression change [2]: drop | persistence of drug levels in BALF ([8]; aerosolized instillation of 200 mg drug/lung, human EVLP lungs, BALF): > 360 min | persistence of drug levels in lung tissue biopsies [8, 9]: up to 240 minutes | time of peak of drug in lung tissue biopsies [8, 9]: ≤ 120 min | time drug can be detected in the perfusate ([8]; aerosolized instillation of 200 mg drug/lung, human EVLP lungs, perfusate): at least 240 minutes | accumulation in lung ([8]; regardless of route of delivery (inhaled or intravenous)): accumulates in lung
Structure (SMILES): COc1cc(C[C@@H](CO[C@@H]2O[C@H](CO)[C@@H](O)[C@H](O)[C@H]2O)[C@H](CO[C@@H]2O[C@H](CO)[C@@H](O)[C@H](O)[C@H]2O)Cc2ccc(O)c(OC)c2)ccc1O [LGM2605, secoisolariciresinol diglucoside]
dynamic compliance [1]: improving | static compliance [1]: improving | P/F ratio (oxygenation) after treatment ([1]; improved from 200 before drug): > 350 | NQO-1 gene expression change [3]: robust increase | GSTMu1 gene expression change [4]: robust increase | IL-1β gene expression change [5]: significantly reduced | COX-2 gene expression change [6]: blocks entirely | time to entire block of COX-2 expression after instillation [6]: ≤ 50 min | IL-6 gene expression change [7]: significantly reduced
